Format in all cases: cell-based
Assay [1] deals with Pseudomonas aeruginosa PAO1 strain H103. To be noted: for MIC: PAO1; for antimicrobial activity against P. aeruginosa PAO1 (in words): laboratory strain P. aeruginosa PAO1. On the procedure: The biological activity of the peptides can be determined by standard methods known to those of skill in the art, such as “minimal inhibitory concentration (MIC)” assay described in the present examples, whereby the lowest concentration at which no change in OD is observed for a given period of time is recorded as MIC.
Minimal inhibitory concentration (MIC) determination. The MIC of the peptides were measured using a modified broth microdilution method in Mueller Hinton (MH) medium (Wu M, Hancock R E W. 1999. Interaction of the cyclic antimicrobial cationic peptide bactenecin with the outer and cytoplasmic membrane. J Biol Chem 274, 29-35). Briefly, the peptides were dissolved and stored in glass vials. The assay was performed in sterile 96-well polypropylene microtitre plates were used. Serial dilutions of the peptides to be assayed were performed in 0.01% acetic acid (Fisher) containing 0.2% bovine serum albumin (Boehringer Mannheim GmbH) at 10× the desired final concentration. Ten microlitres of the 10× peptides were added to each well of a 96-well polypropylene plate containing 90 μl of MH media per well. Bacteria were added to the plate from an overnight culture at 2-7×10^5 colony forming units/ml and incubated over night at 37° C. The MIC was taken as the concentration at which no growth was observed.
(§1) Strains. For the killing assay a mini-Tn5-lux mutant in Pseudomonas aeruginosa H103 was used. The strain is called H1001 and contains a fliC::luxCDABE transcriptional fusion resulting in constitutive expression of luciferase. The bacterial strains used for the antimicrobial activity assays included Escherichia coli UB1005 (F-, nalA37, metB1), a wild-type Salmonella enterica ssp. typhimurium (S. typhimurium), wild-type Pseudomonas aeruginosa PAO1 strain H103, Enterococcus faecalis ATCC29212, Staphylococcus aureus ATCC25923, and a clinical isolate of Staphylococcus epidermidis obtained from Dr. D. Speert (Department of Medicine, University of British Columbia). Antifungal activity was tested using a lab isolate of Candida albicans obtained from Dr. B. Dill (Department of Microbiology and Immunology, University of British Columbia).

Assay [2] deals with Pseudomonas aeruginosa strain H1001 fliC::luxCDABE. In words: Luminescence (lux) killing assay, peptides cleaved from cellulose support. The arrangement: key: − for minimal or no activity; + for weak activity; +/++ for intermediate activity; ++ strong activity. Particulars: P. aeruginosa strain H1001, 4 hours incubation, luminescence as indicator. On the procedure:
Assay for the cleaved peptides from cellulose support. The peptides were cleaved from the dried membrane in an ammonia atmosphere overnight, resulting in free peptides with an amidated C-terminus. The free peptides contained two β-alanines at the C-terminus, in addition to being amidated due to the linker between the cellulose membrane and the peptide sequence. The peptide spots were punched out and transferred in a 96-well microtiter plate. Serial dilutions were carried out from the membrane spots. Four rows were filled with four controls including 2×Bac2A and 2× an unrelated peptide. The other eight rows were used for serial dilution steps of the peptide variants. An overnight culture of Pseudomonas aeruginosa strain H1001 was diluted 1:500 using either LB media or 100 mM Tris buffer pH 7.3, 20 mM glucose and was added to the wells (100 μl/well) containing the peptide spots. In all other wells 50 μl were added. The microtiter plate was incubated for 30 min at 37° C. to release the peptides from the membrane. Subsequently, a dilution series were performed and the plate was incubated at 37° C. The luminescence produced by the FMN dependent luciferase system were detected in a time dependent manner using a Tecan Spectra Fluor plus.
as §1
Peptide synthesis on cellulose is a very effective and inexpensive way to investigate many different peptide variants for one particular activity. However, one of the problems of this technique is the low peptide amount synthesized on the membrane, about 280 nmol per cm^2. An average peptide spot used for the experiments presented is about 0.3 cm^2. Therefore, an assay had to be developed that was sensitive enough to show activity with this amount of peptides. P. aeruginosa H1001 has a luciferase gene cassette incorporated into the bacterial chromosome in a gene fliC (involved in flagellar biosynthesis) that is constitutively expressed. It will thus produce light if FMN is present. When this strain is killed, e.g. by peptides, the amount of light produced will decrease due to a decrease in FMN levels in the killed cells. This action can thus be monitored by detecting luminescence in a microtiter plate luminescence reader over time. The volume and amount of cells per well were optimized for this assay. After screening, we were able to monitor the killing action with small amounts of the parent peptide Bac2A (2 μg/ml of free peptide).

Assay [3] has as its system MCP-3 release by human PBMC. Briefly: Chemokine induction in PBMC (capture ELISA). To be noted: background (6) subtracted. On the procedure: FIG. 16. Induction of MCP3 release by 7.5×10^5 human PBMC in response to treatment with 20 or 100 μg/ml of different peptides for 24 hours.
(§2) Venous blood (20 ml) from healthy volunteers was collected in Vacutainer® collection tubes containing sodium heparin as an anticoagulant (Becton Dickinson, Mississauga, ON) in accordance with UBC ethical approval and guidelines. Blood was diluted 1:1 with complete RPMI 1640 medium and separated by centrifugation over a Ficoll-Paque® Plus (Amersham Biosciences, Piscataway, N.J., USA) density gradient. White blood cells were isolated from the buffy coat, washed twice in RPMI 1640 complete medium, and the number of peripheral blood mononuclear cells (PBMC) was determined by trypan blue exclusion. PBMC (5×10^5) were seeded into 12-well tissue culture dishes (Falcon; Becton Dickinson) at 0.75 to 1×10^6 cells/ml at 37° C. in 5% CO2. The above conditions were chosen to mimic conditions for circulating blood monocytes entering tissues at the site of infection via extravasation.
(§3) Following incubation of the cells under various treatment regimens, the tissue culture supernatants were centrifuged at 1000×g for 5 min, then at 10,000×g for 2 min to obtain cell-free samples. Supernatants were aliquoted and then stored at −20° C. prior to assay for various chemokines by capture ELISA (eBioscience and BioSource International Inc., CA, USA respectively)
In general terms: An ELISA detects its analyte on a solid surface through an enzyme-linked reagent.

Assay [4] relates to CXCL1 (Gro-α) release by human PBMC. In words: Chemokine induction in PBMC (capture ELISA). To be noted: background (196) subtracted. On the procedure: FIG. 17. Induction of CXCL1 (Gro-α) release by 7.5×10^5 human PBMC in response to treatment with 20 or 100 μg/ml of different peptides for 24 hours.
as §2, §3

Assay [5] deals with MCP-1 release by human PBMC. Briefly: Chemokine induction in PBMC (capture ELISA). To be noted: background (204) subtracted. The procedure:
FIG. 15. Induction of MCP-1 release by 7.5×10^5 human PBMC in response to treatment with 20 or 100 μg/ml of different peptides for 24 hours.
as §2, §3

Values after ≈ are worked out from the molar mass of the structure shown. Residues, ends and D or L forms follow the SMILES beside them. No end group written: not given here.

As usually defined, the MIC is the lowest concentration found to suppress growth.

With `CSCC[C@H](NC(=O)[C@H](CCCNC(=N)N)NC(=O)[C@H](Cc1c[nH]cn1)NC(=O)[C@H](CCCNC(=N)N)NC(=O)[C@H](CO)NC(=O)CNC(=O)[C@H](CCCNC(=N)N)NC(=O)[C@H](Cc1ccccc1)NC(=O)[C@H](C)N)C(N)=O` [HHC152, AFRGSRHRM] (H-AFRGSRHRM-NH2; N-terminus assumed), in assay [1], the MIC turned out to be 506 µM (≈ 565 µg/mL) and the “antimicrobial activity against P. aeruginosa PAO1 (in words)” value is “did not posses any antimicrobial activity”.

Turning to `CSCC[C@H](NC(=O)CNC(=O)[C@H](Cc1c[nH]c2ccccc12)NC(=O)[C@H](CCCNC(=N)N)NC(=O)[C@H](CCCNC(=N)N)NC(=O)CN)C(=O)NCC(=O)N[C@H](C(=O)N[C@@H](CCCNC(=N)N)C(N)=O)C(C)C` [HHC183, GRRWGMGVR] (H-GRRWGMGVR-NH2; N-terminus assumed), in assay [1], the MIC was determined as 360 µM (≈ 386 µg/mL) and the “antimicrobial activity against P. aeruginosa PAO1 (in words)” value is listed as “did not posses any antimicrobial activity”.

As to `CC(C)C[C@H](NC(=O)CNC(=O)[C@H](CCCCN)NC(=O)[C@H](CC(N)=O)NC(=O)[C@H](CCCNC(=N)N)NC(=O)[C@@H](N)CCC(N)=O)C(=O)N[C@@H](CCCNC(=N)N)C(=O)N[C@@H](Cc1c[nH]cn1)C(=O)N[C@@H](Cc1c[nH]cn1)C(N)=O` [HHC186, QRNKGLRHH] (H-QRNKGLRHH-NH2; N-terminus assumed), in assay [1], the MIC was determined as 381 µM (≈ 436 µg/mL) and the “antimicrobial activity against P. aeruginosa PAO1 (in words)” value is recorded as “did not posses any antimicrobial activity”.

Regarding `CC[C@H](C)[C@H](NC(=O)[C@H](CCC(N)=O)NC(=O)[C@H](CCCNC(=N)N)NC(=O)[C@H](CCCNC(=N)N)NC(=O)CNC(=O)[C@@H](N)CCCNC(=N)N)C(=O)NCC(=O)N[C@@H](CCCCN)C(=O)N[C@@H](Cc1ccccc1)C(N)=O` [HHC189, RGRRQIGKF] (H-RGRRQIGKF-NH2; N-terminus assumed), in assay [1], the MIC was 379 µM (≈ 423 µg/mL) and the “antimicrobial activity against P. aeruginosa PAO1 (in words)” value is listed as “did not posses any antimicrobial activity”.

As for `CC(C)[C@H](NC(=O)CNC(=O)[C@@H](NC(=O)[C@H](CCCNC(=N)N)NC(=O)[C@H](CCCCN)NC(=O)[C@H](CO)NC(=O)[C@H](C)N)C(C)C)C(=O)N[C@@H](CCCNC(=N)N)C(=O)N[C@@H](CC(N)=O)C(N)=O` [HHC190, ASKRVGVRN] (H-ASKRVGVRN-NH2; N-terminus assumed), in assay [1], the MIC was determined as 413 µM (≈ 407 µg/mL) and the “antimicrobial activity against P. aeruginosa PAO1 (in words)” value is on record as “did not posses any antimicrobial activity”.

For the compound KFFKFKK [HH1009], in assay [2], the Antimicrobial activity entry is reported as “−”.

As for KFHWWIWRK [HH988], the Antimicrobial activity result in assay [2] was “++”.

As for KFHWWKWRK [HH989], in assay [2], the Antimicrobial activity entry was “++”.

Take KFKFFKFRK [HH992]: the Antimicrobial activity entry in assay [2] was “+”.

Take KFKFFKYRK [HH991]: the Antimicrobial activity result in assay [2] is “+”.

With KFKWWKYRK [HH990], in assay [2], the Antimicrobial activity result is “++”.

For the compound KFPWWPWRR [HH976], in assay [2], the Antimicrobial activity result is on record as “+”.

Consider KFRWWKWRR [HH985], for which, in assay [2], the Antimicrobial activity entry is given as “++”.

Consider KFRWWPWRR [HH984], for which the Antimicrobial activity result in assay [2] is recorded as “++”.

For the compound KKKWWKWRR [HH987], the Antimicrobial activity result in assay [2] is “++”.

On to KKPWWPWRR [HH977], for which the Antimicrobial activity entry in assay [2] is “+”.

Regarding KWPKWPWRR [HH979], in assay [2], the Antimicrobial activity entry is given as “+”.

As to KWPWKPWRR [HH980], the Antimicrobial activity result in assay [2] is given as “+”.

As for KWPWWKWRR [HH981], the Antimicrobial activity entry in assay [2] is “++”.

Take KWPWWPKRR [HH982]: the Antimicrobial activity entry in assay [2] is “+”.

As to KWPWWPWRK [HH975], in assay [2], the Antimicrobial activity entry is “+”.

As to KWPWWPWRR [HH983], the Antimicrobial activity result in assay [2] is listed as “+/++”.

Consider KWRWWKKRR [HH986], for which the Antimicrobial activity entry in assay [2] is on record as “++”.

In the case of KWRWWPWRR [HH978], the Antimicrobial activity entry in assay [2] is reported as “++”.

As to KWWKWKK [HH1008], the Antimicrobial activity result in assay [2] is “+”.

Take KWWPWRR [HH994]: the Antimicrobial activity result in assay [2] is given as “+”.

For the compound PKWPWRR [HH997], the Antimicrobial activity result in assay [2] is listed as “−”.

Take PWKPWRR [HH998]: in assay [2], the Antimicrobial activity result is “−”.

On to PWWKWRR [HH995], for which the Antimicrobial activity result in assay [2] was “+/++”.

On to PWWKWRR [HH999], for which the Antimicrobial activity result in assay [2] is “+”.

For the compound PWWPKRR [HH1000], the Antimicrobial activity entry in assay [2] is reported as “−”.

PWWPWRK [HH1001]: the Antimicrobial activity entry in assay [2] is given as “−”.

With PWWPWRR [HH993], the Antimicrobial activity result in assay [2] is listed as “+”.

Consider RFFKFRR [HH1007], for which, in assay [2], the Antimicrobial activity entry is recorded as “−”.

Turning to RFWKWRR [HH1004], the Antimicrobial activity entry in assay [2] was “+”.

As for RWWIKRR [HH1005], the Antimicrobial activity entry in assay [2] is “+/++”.

With RWWIYRR [HH1006], the Antimicrobial activity result in assay [2] was “+”.

RWWKWRK [HH1003]: the Antimicrobial activity result in assay [2] is listed as “+/++”.

Consider RWWKWRR [HH1002], for which the Antimicrobial activity entry in assay [2] was “++”.

RWWPWRR [HH996]: in assay [2], the Antimicrobial activity result is reported as “+”.

“WRWRVRVWR (WRWRVRVWR-NH2) [compound 1031]”: the “Chemokine induction MCP-3” value in assay [3] (20 μg/ml peptide) and in assay [3] (100 μg/ml peptide) was 9 pg/mL each time. In addition, the entries for the “Chemokine induction Gro-α” value in assay [4] (20 μg/ml peptide) and in assay [4] (100 μg/ml peptide) were 172 pg/mL and 112 pg/mL, respectively. The “Chemokine induction MCP-1” value in assay [5] (20 μg/ml peptide) was 875 pg/mL; in assay [5] (100 μg/ml peptide) it was 552 pg/mL.

The record behind these values is patent publication US8343475B2, “Small cationic antimicrobial peptides” (priority 2006, dated 2013).
